Each molecule was assayed against GST-hRIPK1 (8-327) (Homo sapiens (Human), UniProt Q13546) (assay: Fluorescent Polarization Binding (FP Binding) assay, RIPK1). Details: 10 nM GST-hRIPK1 (8-327), 5 nM fluorescent-labeled ligand, RT, 30 min, mean of at least two independent experiments.
Experimental: Fluorescent Polarization Binding (FP Binding) assay (Berger S. B. et al. (2015) Cell Death Discovery, 1: 15009; Maki J. L. et al. (2012) Anal Biochem., 427(2): 164-174) was performed in polystyrene low volume 384-well black plate, at RT in a final volume of 10.1 μl/well using 10 nM of GST-hRIPK1 (8-327) enzyme and 5 nM of fluorescent-labeled ligand (14-(2-{[3-({2-{[4-(cyanomethyl)phenyl]amino]-6-[(5-cyclopropyl-1H-pyrazol-3-yl)amino]-4-pyrimidinyl}amino) propyl}amino}-2-oxoethyl)-16,16,18,18-tetramethyl-6,7,7a,8a,9,10,16,18-octahydrobenzo [2″,3″]indolizino[8″,7″:5′,6′]pyrano [3′,2′:3,4]pyrido[1,2-a]indo1-5-ium-2-sulfonate.
Test compounds were serially diluted in DMSO at 100 fold final concentrations in the assay (1% DMSO final). In each well of a 384-well Plate were dispensed 0.1 μL of compound solution (or DMSO for controls) followed by 5 μL of GST-hRIPK1 (8-327) at twice the final concentrations in assay buffer (50 mM HEPES pH 7.5, 10 mM NaCl, 50 mM MgCl2, 0.02% CHAPS, 0.5 mM DTT and 0.01% Pluronic F127). For negative control the enzyme addition was replaced by assay buffer only.
After addition of 5 μL of fluorescentlabeled ligand at twice the final concentrations in assay buffer, the plate was incubated at RT for […]. At the end, the binding was measured as FP value with the Envision (PerkinElmer) plate reader using filter for an excitation λ=531 nm FP and an emission λ=595 nm FP (S & P-pol). GST-hRIPK1 (8-327) enzyme was produced via Baculovirus expression.
Test compound inhibition was expressed as percent inhibition of internal assay controls. For concentration response curves, normalized data is fit and IC50 determined using XL-fit (IDBS) for Excel. The IC50 values were averaged to determine a mean value, for a minimum of two independent experiments. Results are shown in Table 2 (RIPK1 IC50) values: +++=0.1 nM<IC50<100 nM; ++=100 nM<IC50<1 μM; +=1 μM<IC50).

Chain of GST-hRIPK1 (8-327) (Q13546 8-327): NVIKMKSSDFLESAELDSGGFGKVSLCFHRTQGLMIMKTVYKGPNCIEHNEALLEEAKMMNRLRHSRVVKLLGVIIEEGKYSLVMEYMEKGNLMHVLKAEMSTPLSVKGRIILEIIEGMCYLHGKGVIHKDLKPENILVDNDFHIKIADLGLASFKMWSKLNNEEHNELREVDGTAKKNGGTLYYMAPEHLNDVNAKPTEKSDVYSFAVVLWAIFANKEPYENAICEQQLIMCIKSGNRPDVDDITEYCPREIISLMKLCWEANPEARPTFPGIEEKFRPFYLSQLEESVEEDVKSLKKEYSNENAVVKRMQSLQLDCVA

Compound	IC50 [nM]
N#Cc1cncc2c1OCCN(C(=O)C13CCN(c4ncc(F)cn4)CC1C3(F)F)C2 (stereo not drawn) [Example 99, 4-[7,7-difluoro-3-(5-fluoropyrimidin-2-yl)-3-azabicyclo[4.1.0]heptane-6-carbonyl]-3,5-dihydro-2H-pyrido[3,4-f][1,4]oxazepine-9-carbonitrile]	100 to 1000
CC(C)(C(=O)N1CCOc2c(C#N)cncc2C1)C1(O)CC1 [Example 81, 4-(2-(1-hydroxycyclopropyl)-2-methylpropanoyl)-2,3,4,5-tetrahydropyrido[3,4-f][1,4]oxazepine-9-carbonitrile]	> 1000
COc1nc(N2CCC(OC)(C(=O)N3CCOc4c(C#N)cncc4C3)CC2)ncc1F [Example 194, 4-[1-(5-fluoro-4-methoxy-pyrimidin-2-yl)-4-methoxy-piperidine-4-carbonyl]-3,5-dihydro-2H-pyrido[3,4-f][1,4]oxazepine-9-carbonitrile]	0.1 to 100
CC(C)(CC#N)C(=O)N1CCOc2c(F)cccc2C1 [Example 14, 4-(9-fluoro-3,5-dihydro-2H-1,4-benzoxazepin-4-yl)-3,3-dimethyl-4-oxo-butanenitrile]	0.1 to 100
CC1CC(C(=O)N2CCOc3c(C#N)cncc3C2)CCN1c1ncc(F)cn1 (stereo not drawn) [Example 91, 4-[1-(5-fluoropyrimidin-2-yl)-2-methyl-piperidine-4-carbonyl]-3,5-dihydro-2H-pyrido[3,4-f][1,4]oxazepine-9-carbonitrile]	100 to 1000
N#Cc1cncc2c1OCCN(C(=O)C1(F)CCN(c3nccc(C(F)(F)F)n3)CC1)C2 [Example 167, 4-[4-fluoro-1-[4-(trifluoromethyl)pyrimidin-2-yl]piperidine-4-carbonyl]-3,5-dihydro-2H-pyrido[3,4-f][1,4]oxazepine-9-carbonitrile]	100 to 1000
CN(C)CCCOc1nc(N2CCC(F)(C(=O)N3CCOc4c(C#N)cncc4C3)CC2)ncc1F [Example 127, 4-[1-[4-[3-(dimethylamino)propoxy]-5-fluoro-pyrimidin-2-yl]-4-fluoro-piperidine-4-carbonyl]-3,5-dihydro-2H-pyrido[3,4-f][1,4]oxazepine-9-carbonitrile]	100 to 1000
CC(C)(COC(F)(F)F)C(=O)N1CCOc2c(C#N)cncc2C1 [Example 51, 4-[2,2-dimethyl-3-(trifluoromethoxy)propanoyl]-3,5-dihydro-2H-pyrido[3,4-f][1,4]oxazepine-9-carbonitrile]	0.1 to 100
N#Cc1cncc2c1OCCN(C(=O)C1(F)CCN(c3ccnc4nccn34)CC1)C2 [Example 180]	100 to 1000
CC1(C(=O)N2CCOc3c(C#N)cncc3C2)CCN(c2ncc(F)cn2)CC1(F)F (stereo not drawn) [Example 96, 4-[3,3-difluoro-1-(5-fluoropyrimidin-2-yl)-4-methyl-piperidine-4-carbonyl]-3,5-dihydro-2H-pyrido[3,4-f][1,4]oxazepine-9-carbonitrile]	0.1 to 100
COc1nc(N2CCC(C(=O)N3CCOc4c(C#N)cncc4C3)CC2)ncc1F [Example 118, 4-[1-(5-fluoro-4-methoxy-pyrimidin-2-yl)piperidine-4-carbonyl]-3,5-dihydro-2H-pyrido[3,4-f][1,4]oxazepine-9-carbonitrile]	0.1 to 100
O=C(C1CC(F)(F)C1)N1CCOc2ccccc2C1 [Example 1, (3,3-difluorocyclobutyl)(2,3-dihydrobenzo[f][1,4]oxazepin-4(5H)-yl)methanone]	> 1000
CC(C)C(C)(C)C(=O)N1CCOc2c(C#N)cncc2C1 [Example 145, 4-(2,2,3-trimethylbutanoyl)-3,5-dihydro-2H-pyrido[3,4-f][1,4]oxazepine-9-carbonitrile]	0.1 to 100
N#Cc1cncc2c1OCCN(C(=O)C1(F)CCN(c3cnc(F)c(F)c3)CC1)C2 [Example 193, 4-[1-(5,6-difluoro-3-pyridyl)-4-fluoro-piperidine-4-carbonyl]-3,5-dihydro-2H-pyrido[3,4-f][1,4]oxazepine-9-carbonitrile]	> 1000
N#Cc1cncc2c1OCCN(C(=O)C1CCN(c3ncc(F)cn3)CC1)C2 [Example 155, 4-[1-(5-fluoropyrimidin-2-yl)piperidine-4-carbonyl]-3,5-dihydro-2H-pyrido[3,4-f][1,4]oxazepine-9-carbonitrile]	0.1 to 100
N#Cc1cncc2c1OCCN(C(=O)C1(F)CC1)C2 [Example 140, 4-(1-fluorocyclopropanecarbonyl)-3,5-dihydro-2H-pyrido[3,4-f][1,4]oxazepine-9-carbonitrile]	> 1000
CC(C)(CCF)C(=O)N1CCOc2c(C#N)cncc2C1 [Example 60, 4-(4-fluoro-2,2-dimethyl-butanoyl)-3,5-dihydro-2H-pyrido[3,4-f][1,4]oxazepine-9-carbonitrile]	100 to 1000
N#Cc1cncc2c1OCCN(C(=O)C1(C#N)CCN(c3ncc(F)cn3)CC1)C2 [Example 182, 4-[4-cyano-1-(5-fluoropyrimidin-2-yl)piperidine-4-carbonyl]-3,5-dihydro-2H-pyrido[3,4-f][1,4]oxazepine-9-carbonitrile]	100 to 1000
CC(C)(OC(F)(F)F)C(=O)N1CCOc2c(C#N)cncc2C1 [Example 69, 4-[2-methyl-2-(trifluoromethoxy)propanoyl]-3,5-dihydro-2H-pyrido[3,4-f][1,4]oxazepine-9-carbonitrile]	0.1 to 100
CC(C)(C)C(=O)N1CCOc2c(C#N)cncc2C1 [Example 175, 4-(2,2-dimethylpropanoyl)-3,5-dihydro-2H-pyrido[3,4-f][1,4]oxazepine-9-carbonitrile]	0.1 to 100

Same assay, conditions: GST-hRIPK1 (8-327), mean of at least two independent experiments

Compound	IC50 [nM]
N#Cc1cncc2c1OCCN(C(=O)C1CCN(c3nccn4ncnc34)CC1(F)F)C2 (stereo not drawn) [Example 219, 4-[3,3-difluoro-1-([1,2,4]triazolo[1,5-a]pyrazin-8-yl)piperidine-4-carbonyl]-3,5-dihydro-2H-pyrido[3,4-f][1,4]oxazepine-9-carbonitrile]	100 to 1000
N#Cc1cncc2c1OCCN(C(=O)C1CCN(c3ncnc4ccnn34)CC1(F)F)C2 (stereo not drawn) [Example 220]	100 to 1000
N#Cc1cncc2c1OCCN(C(=O)C1CCN(c3ccnc4c(Cl)cnn34)CC1)C2 [Example 229, 4-[1-(3-chloropyrazolo[1,5-a]pyrimidin-7-yl)piperidine-4-carbonyl]-3,5-dihydro-2H-pyrido[3,4-f][1,4]oxazepine-9-carbonitrile]	0.1 to 100
COc1cc(C(F)(F)F)nc(N2CCC(F)(C(=O)N3CCOc4c(C#N)cncc4C3)CC2)n1 [Example 232, 4-[4-fluoro-1-[4-methoxy-6-(trifluoromethyl)pyrimidin-2-yl]piperidine-4-carbonyl]-3,5-dihydro-2H-pyrido[3,4-f][1,4]oxazepine-9-carbonitrile]	100 to 1000
O=C(C1CCN(c2nccc3ncnn23)CC1(F)F)N1CCOc2c(F)cncc2C1 (stereo not drawn) [Example 251, [3,3-difluoro-1-([1,2,4]triazolo[1,5-c]pyrimidin-5-yl)-4-piperidyl]-(9-fluoro-3,5-dihydro-2H-pyrido[3,4-f][1,4]oxazepin-4-yl)methanone]	100 to 1000
N#Cc1cncc2c1OCCN(C(=O)C1CCN(c3nccn4ncnc34)C[C@@H]1F)C2 (stereo partly drawn) [Example 225, 4-[(3,4)-trans-3-fluoro-1-([1,2,4]triazolo[1,5-a]pyrazin-8-yl)piperidine-4-carbonyl]-3,5-dihydro-2H-pyrido[3,4-f][1,4]oxazepine-9-carbonitrile]	0.1 to 100
CCC(C)(C)C(=O)N1CCOc2c(F)cncc2C1 [Example 207, 1-(9-fluoro-3,5-dihydro-2H-pyrido[3,4-f][1,4]oxazepin-4-yl)-2,2-dimethyl-butan-1-one]	100 to 1000

— patent US11203600B2 (Denali Therapeutics Inc., priority 2017, dated 2021)
